Structures are written as SMILES. Bounds are passed on as bounds.

The values below come from BindingDB's records for doi:10.1016/S0960-894X(01)80506-0 (n/a, 1994).

One test has as its target Beta-lactamase TEM (Escherichia coli, UniProt P62593). Description: Concentration required for its inhibitory activity against Escherichia coli JT4(TEM1) class A beta-lactamase.
The target of test [1] is Beta-lactamase (Pseudomonas aeruginosa (strain ATCC 15692 / DSM 22644 / CIP 104116 / JCM 14847 / LMG 12228 / 1C / PRS 101 / PAO1), UniProt P24735). Kind of test: Concentration required for its inhibitory activity against Pseudomonas aeruginosa class C beta-lactamase.
In test [2] the target is Beta-lactamase (Enterobacter cloacae, UniProt P05364). Description: Concentration required for its inhibitory activity against Enterobacter cloacae P99 class C beta-lactamase.
Test [3] has as its target T1, Beta-lactamase (Escherichia coli, UniProt Q2V0Y6).
T1 sequence (Q2V0Y6 whole entry): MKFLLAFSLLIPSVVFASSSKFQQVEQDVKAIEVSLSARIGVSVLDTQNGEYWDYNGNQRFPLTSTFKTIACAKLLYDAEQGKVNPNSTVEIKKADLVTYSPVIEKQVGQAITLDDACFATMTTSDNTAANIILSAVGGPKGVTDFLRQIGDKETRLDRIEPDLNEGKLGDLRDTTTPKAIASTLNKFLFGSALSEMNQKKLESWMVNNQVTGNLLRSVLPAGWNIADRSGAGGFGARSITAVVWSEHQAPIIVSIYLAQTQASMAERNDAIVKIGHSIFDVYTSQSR
Kind of test: Concentration required for its inhibitory activity against Escherichia coli K12(PSE4) class A beta-lactamase.

The target of test [4] is T2, Beta-lactamase (Proteus mirabilis, UniProt P30897).
T2 sequence (P30897 whole entry): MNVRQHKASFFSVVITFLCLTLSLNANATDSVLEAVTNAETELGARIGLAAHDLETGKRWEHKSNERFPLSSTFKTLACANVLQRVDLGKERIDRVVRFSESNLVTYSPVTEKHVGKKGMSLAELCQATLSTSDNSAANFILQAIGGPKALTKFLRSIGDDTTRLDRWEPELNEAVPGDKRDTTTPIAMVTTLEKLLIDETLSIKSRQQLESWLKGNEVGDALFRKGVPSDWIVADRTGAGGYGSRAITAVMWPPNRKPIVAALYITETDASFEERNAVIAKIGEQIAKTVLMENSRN
Kind of test: Concentration required for its inhibitory activity against Proteus mirabilis C889 class A beta-lactamase.

Another test deals with Beta-lactamase OXA-1 (Escherichia coli, UniProt P13661). Description: Concentration required for its inhibitory activity against Escherichia coli K12(OXA1) class D beta-lactamase.
Chain of Beta-lactamase OXA-1 (P13661 whole entry): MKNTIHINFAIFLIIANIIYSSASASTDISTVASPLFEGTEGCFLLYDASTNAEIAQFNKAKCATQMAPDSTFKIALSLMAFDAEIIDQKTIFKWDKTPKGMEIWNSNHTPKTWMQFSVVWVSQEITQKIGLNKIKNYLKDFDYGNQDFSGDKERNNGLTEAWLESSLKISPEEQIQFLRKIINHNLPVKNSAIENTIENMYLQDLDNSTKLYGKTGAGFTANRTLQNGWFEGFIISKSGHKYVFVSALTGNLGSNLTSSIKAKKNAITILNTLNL

Chain of Beta-lactamase (Pseudomonas aeruginosa (strain ATCC 15692 / DSM 22644 / CIP 104116 / JCM 14847 / LMG 12228 / 1C / PRS 101 / PAO1), UniProt P24735) (P24735 whole entry): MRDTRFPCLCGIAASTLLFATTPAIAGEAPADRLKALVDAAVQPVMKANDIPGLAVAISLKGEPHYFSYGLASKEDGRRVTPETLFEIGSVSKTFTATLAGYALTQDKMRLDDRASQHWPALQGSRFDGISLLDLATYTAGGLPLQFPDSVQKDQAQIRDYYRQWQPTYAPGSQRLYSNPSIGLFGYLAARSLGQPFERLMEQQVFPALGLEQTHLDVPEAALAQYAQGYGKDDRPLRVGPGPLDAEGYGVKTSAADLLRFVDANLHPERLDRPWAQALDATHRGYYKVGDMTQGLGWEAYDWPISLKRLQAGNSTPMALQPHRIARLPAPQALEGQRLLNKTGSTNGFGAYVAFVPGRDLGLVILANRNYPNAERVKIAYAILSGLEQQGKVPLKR
Chain of Beta-lactamase (Enterobacter cloacae, UniProt P05364) (P05364 whole entry): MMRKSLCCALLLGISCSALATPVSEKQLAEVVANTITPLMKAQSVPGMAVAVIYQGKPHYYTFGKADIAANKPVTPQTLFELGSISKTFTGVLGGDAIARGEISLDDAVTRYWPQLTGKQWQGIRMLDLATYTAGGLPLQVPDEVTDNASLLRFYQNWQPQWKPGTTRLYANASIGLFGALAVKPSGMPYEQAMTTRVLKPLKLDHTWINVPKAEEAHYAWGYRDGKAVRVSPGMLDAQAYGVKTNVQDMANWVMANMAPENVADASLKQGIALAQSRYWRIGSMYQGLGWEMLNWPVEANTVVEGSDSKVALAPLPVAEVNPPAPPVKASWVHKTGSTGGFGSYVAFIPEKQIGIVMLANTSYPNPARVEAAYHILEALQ
Chain of Beta-lactamase TEM (P62593 whole entry): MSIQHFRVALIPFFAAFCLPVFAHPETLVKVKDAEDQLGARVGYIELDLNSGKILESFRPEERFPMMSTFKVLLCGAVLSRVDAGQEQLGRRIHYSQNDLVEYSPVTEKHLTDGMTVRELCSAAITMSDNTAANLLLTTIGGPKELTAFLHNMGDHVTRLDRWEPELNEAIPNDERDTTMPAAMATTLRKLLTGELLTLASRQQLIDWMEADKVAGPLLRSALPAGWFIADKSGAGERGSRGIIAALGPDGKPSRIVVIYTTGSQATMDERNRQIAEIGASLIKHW

The IC50 is the concentration at which inhibition is half-maximal. A higher IC50 goes with a need for much substance. `CC(C)CCCCCCCCCCCCCc1cccc(O)c1C(=O)O`: the IC50 against Beta-lactamase TEM came to 26.7 µM; at Beta-lactamase [1], 44.1 µM; on Beta-lactamase [2] it was 24.8 µM.

`CC/C=C\C/C=C\C/C=C\CCCCCCCc1cccc(O)c1C(=O)O`: the IC50 at Beta-lactamase TEM turned out to be 13.4 µM; at Beta-lactamase [3], 26.9 µM; on Beta-lactamase [2] it was 45.8 µM.

As for `CCC(C)CCCCCCCCCCCCc1cccc(O)c1C(=O)O` (centres undefined), the concentration for half-maximal inhibition (IC50) against Beta-lactamase TEM came to 27.5 µM; against Beta-lactamase [1] it was 99.2 µM; at Beta-lactamase [2], 85.5 µM.

`CCCCCCCCCCc1ccccc1C(=O)O` gave a half-inhibitory concentration (IC50) at Beta-lactamase TEM of 68.6 µM. In other words, the double-digit micromolar range.

Turning to `CCCCCCCCCCCCCCCc1cccc(OC)c1C(=O)O`, the 50% inhibitory concentration (IC50) on Beta-lactamase TEM was 2.2 µM; against Beta-lactamase [1], 30.3 µM; against Beta-lactamase [4] it was 60.6 µM; against Beta-lactamase [3], 1.65 µM; on Beta-lactamase OXA-1 it was greater than 91 µM; against Beta-lactamase [2], 6.89 µM.

With `CCCCCCCCCCCCCCCc1cccc(O)c1O`, the midpoint of inhibition against Beta-lactamase [2], the IC50, lay at 90.4 µM.

Take `CCCCCCCCCCc1cccc(O)c1O`: on Beta-lactamase [2], half-maximal inhibition (IC50) was put at 83.8 µM.

Regarding `CCCCCCCCCCc1cccc(O)c1`, the IC50 against Beta-lactamase TEM stood at 8.1 µM; at Beta-lactamase [3], 17.4 µM; against Beta-lactamase [2], 19.1 µM.

Turning to `CCCCCCCCCCCCCCCCCc1cccc(O)c1C(=O)O`, the concentration for half-maximal inhibition (IC50) on Beta-lactamase TEM was found to be 5.04 µM; against Beta-lactamase [1] it was 24.1 µM; on Beta-lactamase [4], 22 µM; at Beta-lactamase [3], 1.85 µM; against Beta-lactamase OXA-1 it was 77 µM; against Beta-lactamase [2], 2.65 µM.

For `CCCCCCCCc1cccc(O)c1C(=O)O`, the half-maximal inhibitory concentration (IC50) was found to be 15.5 µM on Beta-lactamase [4] and 63.9 µM against Beta-lactamase [3].

Compound `CCCCCCCCCCc1cccc(O)c1C(=O)O` had a half-maximal inhibitory concentration (IC50) against Beta-lactamase TEM of 43.1 µM.

Consider `CCCCCCCCCCCCCCCc1cccc(O)c1` [3-pentadecylphenol], for which the IC50 was 65.6 µM against Beta-lactamase [3] and 23.6 µM on Beta-lactamase [2].

Regarding `C=CC/C=C\C/C=C\CCCCCCCc1cccc(O)c1C(=O)O` [6-[8(Z),11(Z),14-pentadecatrienyl]salicylic acid], the 50% inhibitory concentration (IC50) worked out at 2.33 µM against Beta-lactamase TEM; 21 µM at Beta-lactamase [1]; 90.5 µM at Beta-lactamase [4]; 3.21 µM against Beta-lactamase [3]; 72.9 µM at Beta-lactamase OXA-1; 4.08 µM on Beta-lactamase [2].

`O=C(O)[C@H]1/C(=C/CO)O[C@@H]2CC(=O)N21` [antibiotic MM 14151]: on Beta-lactamase OXA-1, the IC50 was determined as 1.75 µM.
